Source: patent US20230416248A1, “COMPOUNDS AND USES THEREOF” (Foghorn Therapeutics Inc., priority 2020, published 2023)

Molecular target: T1, BRM (Homo sapiens, UniProt P51531)
T1 construct: made in house; host or cells: High Five insect cells
Assay: ATPase catalytic activity of BRM, ADP-Glo in vitro biochemical assay
Details: for IC50: 30 nM BRM, 400 μM ATP
Method: The ATPase catalytic activity of BRM or BRG-1 was measured by an in vitro biochemical assay using ADP-Glo™ (Promega, V9102). The ADP-Glo™ kinase assay is performed in two steps once the reaction is complete. The first step is to deplete any unconsumed ATP in the reaction. The second step is to convert the reaction product ADP to ATP, which will be utilized by the luciferase to generate luminesce and be detected by a luminescence reader, such as Envision.
The assay reaction mixture ([…]) contains 30 nM of BRM or BRG-1, 20 nM salmon sperm DNA (from Invitrogen, UfraPure™ Salmon Sperm DNA Solution, cat #15632011), and 400 μM of ATP in the ATPase assay buffer, which comprises of 20 mM Tris, pH 8, 20 mM MgCl2, 50 mM NaCl, 0.1% Tween-20, and 1 mM fresh DTT (Piercer™ DTT (Dithiothreitol), cat #20290). The reaction is initiated by the addition of the 2.5 μL ATPase solution to 2.5 μL ATP/DNA solution on low volume white Proxiplate-384 plus plate (PerkinElmer, cat #6008280) and incubates at room temperature for 1 hour. Then, following addition of 5 μL of ADP-Glo™ Reagent provided in the kit, the reaction incubates at room temperature for 40 minutes. Then, 10 μL of Kinase Detection Reagent provided in the kit is added to convert ADP to ATP, and the reaction incubates at room temperature for 60 minutes. Finally, luminescence measurement is collected with a plate-reading luminometer, such as Envision.

[1] = ATPase catalytic activity, ADP-Glo

T1 sequence (P51531 whole entry): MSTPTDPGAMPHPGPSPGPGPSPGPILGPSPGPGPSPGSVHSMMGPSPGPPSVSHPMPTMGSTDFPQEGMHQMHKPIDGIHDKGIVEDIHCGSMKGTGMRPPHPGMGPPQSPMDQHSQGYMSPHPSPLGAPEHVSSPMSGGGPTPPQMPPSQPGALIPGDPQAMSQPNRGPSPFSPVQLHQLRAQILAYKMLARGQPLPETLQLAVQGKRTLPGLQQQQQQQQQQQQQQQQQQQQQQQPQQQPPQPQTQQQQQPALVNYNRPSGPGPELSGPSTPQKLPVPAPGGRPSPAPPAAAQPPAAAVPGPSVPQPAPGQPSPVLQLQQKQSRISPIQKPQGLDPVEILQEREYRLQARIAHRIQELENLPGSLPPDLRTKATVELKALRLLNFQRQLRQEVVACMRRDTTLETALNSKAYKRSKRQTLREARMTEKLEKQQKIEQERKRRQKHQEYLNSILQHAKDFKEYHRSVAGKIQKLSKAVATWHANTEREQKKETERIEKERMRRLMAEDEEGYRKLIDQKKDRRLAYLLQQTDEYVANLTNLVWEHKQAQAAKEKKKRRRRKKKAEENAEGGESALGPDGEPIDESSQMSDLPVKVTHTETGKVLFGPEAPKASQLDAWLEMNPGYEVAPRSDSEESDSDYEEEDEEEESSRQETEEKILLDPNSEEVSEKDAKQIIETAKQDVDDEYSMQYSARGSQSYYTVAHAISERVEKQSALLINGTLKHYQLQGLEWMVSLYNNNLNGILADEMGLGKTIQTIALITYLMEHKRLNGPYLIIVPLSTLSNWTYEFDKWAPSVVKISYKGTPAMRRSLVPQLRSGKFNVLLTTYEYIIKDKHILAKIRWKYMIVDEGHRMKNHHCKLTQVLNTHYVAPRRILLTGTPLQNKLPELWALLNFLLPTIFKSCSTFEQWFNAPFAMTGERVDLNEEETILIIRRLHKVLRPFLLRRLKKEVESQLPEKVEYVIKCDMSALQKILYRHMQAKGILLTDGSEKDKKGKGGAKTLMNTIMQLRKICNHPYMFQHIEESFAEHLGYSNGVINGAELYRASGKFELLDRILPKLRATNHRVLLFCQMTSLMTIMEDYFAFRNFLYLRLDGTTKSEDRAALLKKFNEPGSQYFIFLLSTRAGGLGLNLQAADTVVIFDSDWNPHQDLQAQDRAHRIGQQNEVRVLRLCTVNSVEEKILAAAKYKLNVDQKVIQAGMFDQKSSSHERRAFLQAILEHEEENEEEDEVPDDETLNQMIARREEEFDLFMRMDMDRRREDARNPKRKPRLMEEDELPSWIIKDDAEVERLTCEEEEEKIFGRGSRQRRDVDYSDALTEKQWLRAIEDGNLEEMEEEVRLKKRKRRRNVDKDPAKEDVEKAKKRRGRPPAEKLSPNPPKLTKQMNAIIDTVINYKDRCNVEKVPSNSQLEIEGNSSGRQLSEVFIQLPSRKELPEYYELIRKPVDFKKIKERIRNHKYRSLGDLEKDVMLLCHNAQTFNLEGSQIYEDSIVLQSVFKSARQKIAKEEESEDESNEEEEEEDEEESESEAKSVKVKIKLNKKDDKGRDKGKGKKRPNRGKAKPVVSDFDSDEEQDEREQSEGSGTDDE

Compound | IC50 [1] [nM] | Ratio* (ratio of BRG1 IC50 to BRM IC50) | IC50 (ADP-Glo ATPase assay) [nM] | Ratio* (ratio BRG1 IC50 / BRM IC50)
COC1Cc2cccnc2N(c2ccc3cnc(CNC(=O)c4ccc5c(c4)S(=O)(=O)CCOC5)cc3n2)C1 (stereo not shown) [Compound 633] | 2230 | 2.24 |  | 
CO[C@H](c1ccc2c(n1)N(c1ccc3cnc(CNC(=O)c4ccc5c(c4)S(=O)(=O)CCOC5)cc3n1)CCC2)C1CC1 [Compound 664] | 1750 | 2.86 |  | 
COCCN(c1ccc(C2CC2)cn1)c1ccc2cnc(CNC(=O)c3ccc4c(c3)S(=O)(=O)CCOC4)cc2n1 [Compound 833] |  |  | 2320 | 2.15
O=C(NCc1cc2nc(N3C(=O)Cc4ccccc43)ccc2cn1)c1ccc2c(c1)S(=O)(=O)CCOC2 [Compound 356] | 3310 | 1.51 |  | 
O=C(NCc1cc2nc(-c3ccc(OC(F)F)cn3)ccc2cn1)c1ccc2c(c1)S(=O)(=O)CCOC2 [Compound 849] |  |  | 606 | 8.25
COc1ccc(C(C)(F)F)cc1-c1ccc2cnc(CNC(=O)c3ccc4c(c3)S(=O)(=O)CCOC4)cc2n1 [Compound 368] |  | 1.00 |  | 
O=C(NCc1cc2nc(-n3cccc(N4CCOCC4)c3=O)ccc2cn1)c1ccc2c(c1)S(=O)(=O)CCOC2 [Compound 401] | 1320 | 3.79 |  | 
O=C(NCc1cc2nc(N3CCCc4ccc(C(F)F)nc43)ccc2cn1)c1ccc2c(c1)S(=O)(=O)CCOC2 [Compound 571] |  | 6.87 |  | 
C[C@@H]1COCc2ncc(C(=O)NCc3cc4nc(-c5cccc(C6CC6)n5)ccc4cn3)cc2S1(=O)=O [Compound 455] |  | 1.00 |  | 
C[C@@H]1CN(c2cccc(-c3ccc4cnc(CNC(=O)c5ccc6c(c5)S(=O)(=O)[C@@H](C)CO[C@@H]6C)cc4n3)n2)C[C@H](C)O1 [Compound 517] | 429 | 11.66 |  | 
C[C@@H]1CN(c2cccc(-c3ccc4cnc(CNC(=O)c5cccc(S(=O)(=O)C6CC6)c5)cc4n3)n2)C[C@H](C)O1 [Compound 371] | 196 | 25.45 |  | 
COCCN(c1cccc(C2CC2)n1)c1ccc2cnc(CNC(=O)c3ccc4c(c3)S(=O)(=O)CCOC4)cc2n1 [Compound 840] |  |  | 4000 | 1.25
COCCN1CCc2cccc(-c3ccc4cnc(CNC(=O)c5ccc6c(c5)S(=O)(=O)CCOC6)cc4n3)c2C1 [Compound 674] | 3780 | 1.32 |  | 
C[C@@H]1CN(c2cccc(-c3ccc4cnc(CNC(=O)c5ccc6c(c5)S(=O)(=O)[C@H](C)CO[C@H]6C)cc4n3)n2)C[C@H](C)O1 [Compound 518] | 4560 | 1.10 |  | 
CS(=O)(=O)c1cc(C(=O)NCc2cc3nc(N4CCCc5ccc(C6CC6)nc54)ccc3cn2)cnc1C(F)F [Compound 721] |  |  | 188 | 26.60
CO[C@H](C)c1ccc2c(n1)N(c1ccc3cnc(CNC(=O)c4ccc5c(c4)S(=O)(=O)CCOC5)cc3n1)CCC2 [Compound 562] | 425 | 11.77 |  | 

Compound | IC50 [1] [nM] | Ratio* (ratio of BRG1 IC50 to BRM IC50) | IC50 (ADP-Glo ATPase assay) [nM] | Ratio* (ratio BRG1 IC50 / BRM IC50)
C[C@@H]1CN(c2cccc(-c3ccc4cnc(CNC(=O)c5ccc6c(c5)S(=O)(=O)CCO[C@H]6C5CC5)cc4n3)n2)C[C@H](C)O1 [Compound 459] | 192 | 25.98 |  | 
O=C(NCc1cc2nc(-c3cccc4c3CN(C3COC3)CC4)ccc2cn1)c1ccc2c(c1)S(=O)(=O)CCOC2 [Compound 671] | 4000 | 1.25 |  | 
CC[C@@H]1COCc2ccc(C(=O)NCc3cc4nc(-c5cccc(N6C[C@@H](C)O[C@@H](C)C6)n5)ccc4cn3)cc2S1(=O)=O [Compound 359] |  | 1.00 |  | 
CC[C@H]1COCc2ccc(C(=O)NCc3cc4nc(-c5cccc(N6C[C@@H](C)O[C@@H](C)C6)n5)ccc4cn3)cc2S1(=O)=O [Compound 360] | 974 | 5.14 |  | 
CCOc1cc(C)cc(-c2ccc3cnc(CNC(=O)c4ccc5c(c4)S(=O)(=O)[C@@H](C)COC5)cc3n2)n1 [Compound 417] | 253 | 19.79 |  | 
O=C(NCc1cc2nc(N3CCc4nccnc4C3)ccc2cn1)c1ccc2c(c1)S(=O)(=O)CCOC2 [Compound 546] | 1820 | 2.75 |  | 
CO[C@@H](c1ccc2c(n1)N(c1ccc3cnc(CNC(=O)c4ccc5c(c4)S(=O)(=O)CCOC5)cc3n1)CCC2)C1CC1 [Compound 663] | 673 | 7.43 |  | 
COCCN(c1ccnc(C2CC2)n1)c1ccc2cnc(CNC(=O)c3ccc4c(c3)S(=O)(=O)CCOC4)cc2n1 [Compound 839] |  |  |  | 1.00
O=C(NCc1cc2nc(-c3cccc4c3CN(CC(F)F)CC4)ccc2cn1)c1ccc2c(c1)S(=O)(=O)CCOC2 [Compound 675] | 884 | 5.66 |  | 
C[C@@H]1CN(c2cccc(-c3ccc4cnc(CNC(=O)c5ccc6c(c5)S(=O)(=O)[C@H](C)CN6C)cc4n3)n2)C[C@H](C)O1 [Compound 560] | 498 | 10.04 |  | 
O=C(NCc1cc2nc(C34CC3CCc3cccnc34)ccc2cn1)c1ccc2c(c1)S(=O)(=O)CCOC2 (stereo not shown) [Compound 762] |  |  |  | 1.00
O=C(NCc1cc2nc(N3CCCc4ccc(C(F)F)nc43)ccc2cn1)c1ccc2c(c1)S(=O)(=O)CCOC2 [Compound 563] |  | 16.52 |  | 
CN1CC[C@@H](Oc2cccc(-c3ccc4cnc(CNC(=O)c5ccc6c(c5)S(=O)(=O)CCOC6)cc4n3)n2)C1 [Compound 328] | 843 | 5.93 |  | 
COc1c(-c2ccc3cnc(CNC(=O)c4ccc5c(c4)S(=O)(=O)CCOC5)cc3n2)cccc1C(F)F [Compound 343] | 1350 | 3.71 |  | 
COCCN(c1cc(C2CC2)ccn1)c1ccc2cnc(CNC(=O)c3ccc4c(c3)S(=O)(=O)CCOC4)cc2n1 [Compound 829] |  |  | 1660 | 3.02
CC1Cc2cccnc2N(c2ccc3cnc(CNC(=O)c4ccc5c(c4)S(=O)(=O)CCOC5)cc3n2)C1 (stereo not shown) [Compound 556] | 1700 | 2.94 |  | 

The remaining lines, values ahead:

IC50 [1] [nM] | Ratio* (ratio of BRG1 IC50 to BRM IC50) | IC50 (ADP-Glo ATPase assay) [nM] | Ratio* (ratio BRG1 IC50 / BRM IC50) | Compound
793 | 6.31 |  |  | CC[C@H]1CCS(=O)(=O)c2cc(C(=O)NCc3cc4nc(-c5cccc(N6C[C@@H](C)O[C@@H](C)C6)n5)ccc4cn3)ccc2O1 [Compound 584]
1500 | 3.34 |  |  | C[C@@H]1CN(c2cccc(-c3ccc4cnc(CNC(=O)c5cc(Cl)c6c(c5)S(=O)(=O)[C@H](C)COC6)cc4n3)n2)C[C@H](C)O1 [Compound 432]
 | 1.00 |  |  | C[C@@H]1CN(c2cccc(-c3ccc4cnc(CNC(=O)c5cc(C6(C)CC6)c6c(c5)S(=O)(=O)CCOC6)cc4n3)n2)C[C@H](C)O1 [Compound 351]
206 | 24.25 |  |  | C[C@@H]1CN(c2cccc(-c3ccc4cnc(CNC(=O)c5ccc6c(c5)S(=O)(=O)[C@@H](C)CC6)cc4n3)n2)C[C@H](C)O1 [Compound 363]
 | 4.40 |  |  | CC1CN(c2cccc(-c3ccc4cnc(CNC(=O)c5cnc6c(c5)S(=O)(=O)CCC5CC65)cc4n3)n2)CC(C)O1 (stereo not shown) [Compound 579]
293 | 17.08 |  |  | C[C@@H]1CN(c2cccc(-c3ccc4cnc(CNC(=O)c5cc(Cl)c6c(c5)S(=O)(=O)CCO[C@H]6C)cc4n3)n2)C[C@H](C)O1 [Compound 547]
539 | 9.28 |  |  | C[C@@H]1CCS(=O)(=O)c2cc(C(=O)NCc3cc4nc(-c5cccc(N6C[C@@H](C)O[C@@H](C)C6)n5)ccc4cn3)cc(Cl)c2O1 [Compound 505]
1720 | 2.92 |  |  | Cc1cc(C(=O)NCc2cc3nc(-c4cccc(N5C[C@@H](C)O[C@@H](C)C5)n4)ccc3cn2)cc2c1COC[C@@H](C)S2(=O)=O [Compound 462]
484 | 10.33 |  |  | C[C@@H]1CN(c2cccc(-c3ccc4cnc(CNC(=O)c5ccc6c(c5)S(=O)(=O)[C@H](C)CO6)cc4n3)n2)C[C@H](C)O1 [Compound 684]
3930 | 1.27 |  |  | C[C@@H]1CN(c2cccc(-c3ccc4cnc(CNC(=O)c5ccc6c(c5)S(=O)(=O)CCC(C)(C)O6)cc4n3)n2)C[C@H](C)O1 [Compound 559]
131 | 38.11 |  |  | Cc1cc(C(=O)NCc2cc3nc(-c4cccc(N5C[C@@H](C)O[C@@H](C)C5)n4)ccc3cn2)cc2c1O[C@H](C)CCS2(=O)=O [Compound 541]
681 | 7.34 |  |  | C[C@@H]1CN(c2cccc(-c3ccc4cnc(CNC(=O)c5cnc6c(c5)S(=O)(=O)[C@H](C)CC6)cc4n3)n2)C[C@H](C)O1 [Compound 596]
1240 | 4.05 |  |  | C[C@@H]1CN(c2cccc(-c3ccc4cnc(CNC(=O)c5ccc6c(c5)S(=O)(=O)CC[C@H](C(F)F)O6)cc4n3)n2)C[C@H](C)O1 [Compound 582]
1590 | 3.15 |  |  | Cc1cc(C(=O)NCc2cc3nc(-c4cccc(N5C[C@@H](C)O[C@@H](C)C5)n4)ccc3cn2)cc2c1OCC[C@@H](C)S2(=O)=O [Compound 461]
1160 | 4.29 |  |  | C[C@@H]1CN(c2cccc(-c3ccc4cnc(CNC(=O)c5cc(Cl)c6c(c5)S(=O)(=O)[C@H](C)CCO6)cc4n3)n2)C[C@H](C)O1 [Compound 486]
